Results taken from patent US9527839B2, “Benzimidazole tetrahydropyran derivatives” (Merck Sharp & Dohme Corp., priority 2012, dated 2016).

How the values were obtained:
[1] = tested on: ob/ob and db/db mice; conditions: following 8 weeks of administration; cited from earlier work
[2] = target: recombinant human AMPK complex 1 (containing α1β1γ1) (Homo sapiens (Human), UniProt Q13131+Q9Y478); assay: In vitro AMPK activation assay (AMPKSAMSF), complex 1; type: biochemical; conditions: recombinant human AMPK complex 1 (α1β1γ1); for % Maximum AMP Activation of human AMPK Complex 1: 10-point titration
Sequence of recombinant human AMPK complex 1 (containing α1β1γ1) (Q13131 whole entry): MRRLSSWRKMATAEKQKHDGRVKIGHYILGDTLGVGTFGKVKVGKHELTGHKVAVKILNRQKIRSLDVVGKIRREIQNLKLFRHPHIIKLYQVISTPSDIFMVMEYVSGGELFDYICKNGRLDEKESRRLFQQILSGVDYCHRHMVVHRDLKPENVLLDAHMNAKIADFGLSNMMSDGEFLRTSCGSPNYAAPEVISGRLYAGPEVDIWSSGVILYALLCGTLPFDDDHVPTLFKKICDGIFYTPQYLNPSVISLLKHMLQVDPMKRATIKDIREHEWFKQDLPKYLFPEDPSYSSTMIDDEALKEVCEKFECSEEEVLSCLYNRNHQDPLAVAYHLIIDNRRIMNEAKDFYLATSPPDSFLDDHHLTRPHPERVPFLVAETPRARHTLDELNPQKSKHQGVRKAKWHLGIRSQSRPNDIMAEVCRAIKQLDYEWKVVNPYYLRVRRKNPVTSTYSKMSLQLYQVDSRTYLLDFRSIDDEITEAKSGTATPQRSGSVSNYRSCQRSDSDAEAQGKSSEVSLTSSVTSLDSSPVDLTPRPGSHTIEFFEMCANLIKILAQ
Sequence of recombinant human AMPK complex 1 (containing α1β1γ1) (Q9Y478 whole entry): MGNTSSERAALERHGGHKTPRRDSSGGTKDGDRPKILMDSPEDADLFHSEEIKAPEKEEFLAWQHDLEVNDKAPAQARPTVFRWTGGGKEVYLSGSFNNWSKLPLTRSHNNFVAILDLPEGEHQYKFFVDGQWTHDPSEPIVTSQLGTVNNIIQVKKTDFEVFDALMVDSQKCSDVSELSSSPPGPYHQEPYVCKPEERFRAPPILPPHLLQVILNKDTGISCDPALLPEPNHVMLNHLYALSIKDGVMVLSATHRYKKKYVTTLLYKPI
Sequence of recombinant human AMPK complex 1 (containing α1β1γ1) (P54619 whole entry partner): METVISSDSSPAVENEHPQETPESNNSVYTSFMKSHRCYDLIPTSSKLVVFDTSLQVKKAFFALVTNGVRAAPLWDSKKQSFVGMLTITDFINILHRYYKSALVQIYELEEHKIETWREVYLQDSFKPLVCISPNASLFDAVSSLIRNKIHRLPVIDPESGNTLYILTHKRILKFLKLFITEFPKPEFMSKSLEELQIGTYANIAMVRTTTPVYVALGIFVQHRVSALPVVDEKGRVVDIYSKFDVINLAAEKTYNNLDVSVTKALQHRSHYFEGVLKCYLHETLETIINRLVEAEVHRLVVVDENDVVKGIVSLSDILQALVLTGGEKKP
Protocol: (§1) The recombinant human AMPK complex 1 (containing α1β1γ1) or AMPK complex 7 (containing α2β1γ1) was obtained from baculovirus expression system. Recombinant viruses were generated by cotransfection of AMPK/pBacPak9 clones with Baculogold baculovirus DNA (Pharmingen) in spodoptera frugiperda 21 cells according to the manufacturer's instructions. Each round of virus amplification was performed for 5 days in Grace's medium containing 10% serum. Virus that had been subjected to three rounds of amplification was used for all protein production procedures. To express the AMPK complex, sf21 cells were adapted to serum free medium (SF900 II, Invitrogen) by sequential dilution from serum containing stocks into SF900II medium and maintained in shaker flasks at 90 rpm at 27° C. The recombinant AMPK enzyme complex was produced by triple infection, one recombinant virus for each of the subunits, in sf21 cells under serum free conditions. Cells were infected in log phase, 1×10^6 cells/ml, at a multiplicity of infection of 5. Cells were harvested by centrifugation at 10,000×g for 15 minutes after 72 hours of infection with viruses. The insect cell pellet from 2 liters of culture was resuspended in 50 ml lysis buffer (20 mM Tris-HCl, 50 mM NaCl, 50 mM NaF, 30 mM Na PPi, 0.25 M sucrose, 10 mM ZnCl2, 2 mM DTT, 0.4 mg/ml digitonin) and subjected to two cycles of freeze-thaw lysis in a dry-ice ethanol bath. Insoluble material was removed by centrifugation at 10,000×g and the supernatant was fractionated with use of polyethylene glycol (PEG). The protein fraction precipitating between 2.5 and 6% PEG was used for further purification using a Blue-Sepharose step (Zhou et al, J. Clin. Invest. 108, 1167-1174, 2001).
(§2) The in vitro AMPK activation assay is performed in a volume of 30 μl in a 384-well plate. Enzyme reactions were assembled in the microtiter plate by adding 15 μl of 2X enzyme in assay buffer (20 mM HEPES, pH 7.3, 5 mM MgCl2, 3 mM DTT, 0.01% Brij 35 and CamK Kinase, to activate AMPK) to wells which contained either DMSO or compound. The reaction was initiated with the addition of 15 μl 2× substrate mixture containing 200 μM ATP, and 3.0 μM fluorescently labeled SAMS (5-FAM-HMRSAMSGLHLVKRR-COOH) in assay buffer. After 45-minute incubation at 25° C., the reaction was stopped by the addition of 70 μl stop buffer (100 mM HEPES, pH 7.3, 40 mM EDTA, 0.015% Brij 35). Phosphorylated 5-FAM SAMS product is assessed using a Caliper EZ Reader LabChip microfluidics reader. Product conversion is determined by calculating the peak heights of the substrate and product and reporting the product/(product+substrate) peak ratio. The 10-point titration data were expressed as % maximum AMP activation. The results were plotted using 4 parameter fit and the inflection point reflecting 50% of the maximum activation was reported as the EC50.

[3] = target: recombinant human AMPK complex 7 (containing α2β1γ1) (Homo sapiens (Human), UniProt P54646+Q9Y478); assay: In vitro AMPK activation assay (AMPKSAMSF), complex 7; type: biochemical; conditions: recombinant human AMPK complex 7 (α2β1γ1); for Emax: 10-point titration, read-out: % Maximum AMP Activation of human AMPK Complex 7
Sequence of recombinant human AMPK complex 7 (containing α2β1γ1) (P54646 whole entry): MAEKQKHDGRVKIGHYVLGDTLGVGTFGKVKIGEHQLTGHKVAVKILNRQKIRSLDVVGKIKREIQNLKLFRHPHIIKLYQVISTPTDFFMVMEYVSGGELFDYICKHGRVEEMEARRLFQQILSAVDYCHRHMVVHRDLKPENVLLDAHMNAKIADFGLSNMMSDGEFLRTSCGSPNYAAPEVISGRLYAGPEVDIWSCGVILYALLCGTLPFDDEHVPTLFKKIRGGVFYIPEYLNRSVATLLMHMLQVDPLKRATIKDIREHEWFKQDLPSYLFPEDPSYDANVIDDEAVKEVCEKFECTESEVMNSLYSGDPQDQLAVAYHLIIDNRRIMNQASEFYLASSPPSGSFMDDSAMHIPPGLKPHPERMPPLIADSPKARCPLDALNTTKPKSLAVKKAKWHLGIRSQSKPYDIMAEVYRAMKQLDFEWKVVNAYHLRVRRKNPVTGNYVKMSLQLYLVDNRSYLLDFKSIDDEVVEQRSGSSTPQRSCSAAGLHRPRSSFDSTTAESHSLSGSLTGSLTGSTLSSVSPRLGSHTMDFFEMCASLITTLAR
Sequence of recombinant human AMPK complex 7 (containing α2β1γ1) (Q9Y478 whole entry): as the sequence (Q9Y478 whole entry) above
Sequence of recombinant human AMPK complex 7 (containing α2β1γ1) (P54619 whole entry partner): as the sequence (P54619 whole entry partner) above
Protocol: as §1, §2

Row | Compound | blood glucose reduction [1] [%] | EC50 [2] [nM] | % Maximum AMP Activation of human AMPK Complex 1 [2] [%] | EC50 [3] [nM] | Emax [3] [%]
1 | NC(=O)c1ncn([C@@H]2O[C@H](CO)[C@@H](O)[C@H]2O)c1N [AICAR] | 35 |  |  |  | 
2 | CS(=O)(=O)Cc1ccc(-c2ccc(-c3cc4nc(O[C@H]5CO[C@H](CO)[C@@H](O)C5)[nH]c4cc3Cl)cc2)cc1 [Example 2] |  | 36 | 490 |  | 
3 | OC[C@H]1OC[C@H](Oc2nc3cc(-c4ccc(-c5ccc(-c6nccc(O)n6)cc5)cc4)c(Cl)cc3[nH]2)C[C@@H]1O [Example 6] |  |  |  | 7 | 373
4 | CC(CO)(CO)c1ccc(-c2ccc(-c3cc4nc(O[C@H]5CO[C@H](CO)[C@@H](O)C5)[nH]c4cc3Cl)cc2)cc1 [Example 7] |  |  |  | 6 | 333
5 | OC[C@H]1OC[C@H](Oc2nc3cc(-c4ccc(-c5ccc(C6CNCCO6)cc5)cc4)c(Cl)cc3[nH]2)C[C@@H]1O (stereo partly drawn) [Example 8] |  |  |  | 12 | 348
6 | N=c1nc(N)[nH]n1-c1ccc(-c2ccc(-c3cc4nc(O[C@H]5CO[C@H](CO)[C@@H](O)C5)[nH]c4cc3Cl)cc2)cc1 [Example 16] |  |  |  | 7 | 373
7 | O=S(=O)(c1ccc(-c2ccc(-c3cc4nc(O[C@H]5CO[C@H](CO)[C@@H](O)C5)[nH]c4cc3Cl)cc2)cc1)C1CCNCC1 [Example 18] |  |  |  | 14 | 364
8 | O=C1NCCC1c1ccc(-c2ccc(-c3cc4nc(O[C@H]5CO[C@H](CO)[C@@H](O)C5)[nH]c4cc3Cl)cc2)cc1 (stereo partly drawn) [Example 19] |  |  |  | 15 | 392
9 | OC[C@H]1OC[C@H](Oc2nc3cc(-c4ccc(-c5ccc(-n6cncn6)cc5)cc4)c(Cl)cc3[nH]2)C[C@@H]1O [Example 21] |  |  |  | 9 | 400
10 | OC[C@H]1OC[C@H](Oc2nc3cc(-c4ccc(-c5ccc(-c6nnn[nH]6)cc5)cc4)c(Cl)cc3[nH]2)C[C@@H]1O [Example 23] |  |  |  | 18 | 387
11 | CC(C)(O)Cc1cnn(-c2ccc(-c3ccc(-c4cc5nc(O[C@H]6CO[C@H](CO)[C@@H](O)C6)[nH]c5cc4Cl)cc3)cc2)c1 [Example 24] |  |  |  | 18 | 360
12 | CS(=O)(=O)c1ccc(-c2ccc(-c3c(F)cc4[nH]c(O[C@H]5CO[C@H](CO)[C@@H](O)C5)nc4c3F)cc2)cc1 [Example 26] |  | 7 | 558 |  | 
13 | CC(C)(O)c1ccc(-c2ccc(-c3c(F)cc4[nH]c(O[C@H]5CO[C@H](CO)[C@@H](O)C5)nc4c3F)cc2)cc1 [Example 29] |  | 26 | 492 |  | 
14 | OC[C@H]1OC[C@H](Oc2nc3c(F)c(-c4ccc(-c5ccc(-c6nccc(O)n6)cc5)cc4)c(F)cc3[nH]2)C[C@@H]1O [Example 35] |  |  |  | 3 | 370
15 | OC[C@H]1OC[C@H](Oc2nc3c(F)c(-c4ccc(-c5ccc(C6CNCCO6)cc5)cc4)c(F)cc3[nH]2)C[C@@H]1O (stereo partly drawn) [Example 36] |  |  |  | 3 | 327
16 | OC[C@H]1OC[C@H](Oc2nc3c(F)c(-c4ccc(-c5ccc(-c6ncco6)cc5)cc4)c(F)cc3[nH]2)C[C@@H]1O [Example 38] |  |  |  | 17 | 266
17 | OC[C@H]1OC[C@H](Oc2nc3c(F)c(-c4ccc(-c5ccc(-c6nccs6)cc5)cc4)c(F)cc3[nH]2)C[C@@H]1O [Example 39] |  |  |  | 13 | 192
18 | N=c1nc(N)[nH]n1-c1ccc(-c2ccc(-c3c(F)cc4[nH]c(O[C@H]5CO[C@H](CO)[C@@H](O)C5)nc4c3F)cc2)cc1 [Example 40] |  |  |  | 5 | 387
19 | O=S(=O)(c1ccc(-c2ccc(-c3c(F)cc4[nH]c(O[C@H]5CO[C@H](CO)[C@@H](O)C5)nc4c3F)cc2)cc1)C1CCNCC1 [Example 42] |  |  |  | 8 | 401
20 | O=C1NCCC1c1ccc(-c2ccc(-c3c(F)cc4[nH]c(O[C@H]5CO[C@H](CO)[C@@H](O)C5)nc4c3F)cc2)cc1 (stereo partly drawn) [Example 43] |  |  |  | 4 | 398
21 | O=C(O)CCCc1ccc(-c2ccc(-c3c(F)cc4[nH]c(O[C@H]5CO[C@H](CO)[C@@H](O)C5)nc4c3F)cc2)cc1 [Example 44] |  |  |  | 11 | 426
22 | OC[C@H]1OC[C@H](Oc2nc3c(F)c(-c4ccc(-c5ccc(-n6cncn6)cc5)cc4)c(F)cc3[nH]2)C[C@@H]1O [Example 45] |  |  |  | 2 | 391
23 | OC[C@H]1OC[C@H](Oc2nc3c(F)c(-c4ccc(-c5ccc(-c6nnc(O)o6)cc5)cc4)c(F)cc3[nH]2)C[C@@H]1O [Example 47] |  |  |  | 7 | 328
24 | CNC(=O)c1ccc(-c2ccc(-c3c(F)cc4[nH]c(O[C@H]5CO[C@H](CO)[C@@H](O)C5)nc4c3F)cc2)cc1 [Example 48] |  |  |  | 2 | 414
25 | OC[C@H]1OC[C@H](Oc2nc3c(F)c(-c4ccc(-c5ccc(-c6nnn[nH]6)cc5)cc4)c(F)cc3[nH]2)C[C@@H]1O [Example 49] |  |  |  | 9 | 419
26 | CC(C)(O)Cc1cnn(-c2ccc(-c3ccc(-c4c(F)cc5[nH]c(O[C@H]6CO[C@H](CO)[C@@H](O)C6)nc5c4F)cc3)cc2)c1 [Example 50] |  |  |  | 7 | 403
